Results: publication PMC11648835 (Chemmedchem, 2024)
Entries after “also recorded” stand apart in the source; their conditions may differ.

What was measured:
[1] = test system: Mycobacterium tuberculosis mc^26206 (WT); format: cell-based
[2] = test system: Mtb strain mc^26206 wild-type, hypoxic non-replicating; format: cell-based, Mycobacterium tuberculosis
[3] = test system: Mtb-infected human THP-1 macrophages; format: cell-based, Mycobacterium tuberculosis
[4] = test system: panel of bacteria consisting of S. aureus, E. faecium, E. coli, K. pneumoniae, A. baumannii and P. aeruginosa; format: cell-based

Row | Structure (SMILES) | anti-tuberculosis activity against wild type Mtb (in words) [1] | intracellular anti-tuberculosis activity (in words) [3] | other results
1 | O=c1ccc2nc3ccc(OCCO)cc3oc-2c1 [Compound 6s, 7‐(2‐Hydroxyethoxy)‐3H‐phenoxazin‐3‐one] | completely inactive |  | 
2 | O=c1ccc2nc3ccc(OCC4(CO)COC4)cc3oc-2c1 [Compound 6y, 7‐((3‐(Hydroxymethyl)oxetan‐3‐yl)methoxy)‐3H‐phenoxazin‐3‐one] | completely inactive |  | 
3 | COc1ccc2nc3ccc(=O)cc-3oc2c1 [Compound 6j, 7‐Methoxy‐3H‐phenoxazin‐3‐one] |  |  | time-kill kinetic assay under hypoxia (in words) [2]: inactive
4 | O=c1ccc2nc3ccc(OCc4ccc([N+](=O)[O-])cc4)cc3oc-2c1 [Compound 6b, 7‐((4‐Nitrobenzyl)oxy)‐3H‐phenoxazin‐3‐one] | no anti‐tuberculosis activity |  | MIC90 Mtb WT [1]: >256 µM
5 | COCOc1ccc2nc3ccc(=O)c(I)c-3oc2c1 [Compound 8h, 4‐Iodo‐7‐(methoxymethoxy)‐3H‐phenoxazin‐3‐one] |  | intracellular TB killing | 
6 | COCCOc1ccc2nc3ccc(=O)cc-3oc2c1 [Compound 6i, 7‐(2‐Methoxyethoxy)‐3H‐phenoxazin‐3‐one] |  | intracellular TB killing | intracellular Mtb survival [3]: approximately 10%
7 | O=c1ccc2nc3ccc(OCc4ccc([N+](=O)[O-])o4)cc3oc-2c1 [Compound 1, 7‐((5‐Nitrofuran‐2‐yl)methoxy)‐3H‐phenoxazin‐3‐one] |  | intracellular TB killing | time-kill kinetic assay under hypoxia (in words) [2]: inactive; activity against a panel of bacteria (in words) [4]: inactive
8 | O=c1ccc2nc3ccc(OCc4ccccc4)cc3oc-2c1 [Compound 6g, 7‐(Benzyloxy)‐3H‐phenoxazin‐3‐one] | no anti‐tuberculosis activity |  | 
9 | O=c1ccc2nc3ccc(O)cc3oc-2c1 [Compound 2, resorufin, reference compound] | no anti‐tuberculosis activity; also recorded: inactive |  | activity against a panel of bacteria (in words) [4]: inactive
